Source: ChEMBL document CHEMBL3627643, “Synthesis of stereochemically diverse cyclic analogs of tubulysins” (Bioorg Med Chem, 2015)

Target: Tubulin (Sus scrofa) (UniProt P02554+P02550)
Assay: Inhibition of pig tubulin polymerization at 5 uM incubated for 20 mins at 37 degC by fluorescence based tubulin polymerization inhibition assay
Format: protein assay

Tubulin (Sus scrofa), sequence (P02550 whole entry, looked up): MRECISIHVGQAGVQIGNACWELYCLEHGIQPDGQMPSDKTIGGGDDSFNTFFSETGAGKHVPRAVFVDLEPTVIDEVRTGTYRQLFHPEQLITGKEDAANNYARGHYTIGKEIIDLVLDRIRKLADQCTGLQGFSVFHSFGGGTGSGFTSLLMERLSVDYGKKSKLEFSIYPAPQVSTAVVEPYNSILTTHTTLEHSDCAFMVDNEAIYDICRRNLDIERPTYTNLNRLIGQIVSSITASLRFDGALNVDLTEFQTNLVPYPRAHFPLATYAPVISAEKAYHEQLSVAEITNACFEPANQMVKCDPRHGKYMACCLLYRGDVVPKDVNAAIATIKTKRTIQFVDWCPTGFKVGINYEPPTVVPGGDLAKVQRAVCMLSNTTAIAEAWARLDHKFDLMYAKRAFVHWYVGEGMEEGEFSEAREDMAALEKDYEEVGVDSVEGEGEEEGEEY
Tubulin (Sus scrofa), sequence (P02554 whole entry, looked up): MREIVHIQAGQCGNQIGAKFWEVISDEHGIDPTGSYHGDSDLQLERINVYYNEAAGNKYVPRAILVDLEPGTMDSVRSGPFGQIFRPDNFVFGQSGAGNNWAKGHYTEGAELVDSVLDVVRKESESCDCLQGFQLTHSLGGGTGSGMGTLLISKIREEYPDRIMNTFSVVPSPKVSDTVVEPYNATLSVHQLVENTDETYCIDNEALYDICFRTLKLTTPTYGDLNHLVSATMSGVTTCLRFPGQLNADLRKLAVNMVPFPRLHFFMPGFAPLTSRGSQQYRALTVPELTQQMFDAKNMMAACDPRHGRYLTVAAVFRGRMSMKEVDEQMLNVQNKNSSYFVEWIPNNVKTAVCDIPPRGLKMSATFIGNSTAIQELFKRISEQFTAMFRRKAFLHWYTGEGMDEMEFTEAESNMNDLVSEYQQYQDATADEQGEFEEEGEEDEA

Compound	inhibition [%]
CC[C@H](C)[C@H](NC(=O)CN(C)C)C(=O)N[C@H]1CCO[C@@H](c2nc(C(=O)NCCc3ccccc3)cs2)C1	19.9
CC[C@H](C)[C@H](NC(=O)[C@H]1CCCCN1C)C(=O)N[C@@H]1CCO[C@H](c2nc(C(=O)NC(C)C)cs2)C1	1.45
CC[C@H](C)[C@H](NC(=O)[C@H]1CCCCN1C)C(=O)N[C@@H]1CCO[C@@H](c2nc(C(=O)NC(C)C)cs2)C1	3.9
CC[C@H](C)[C@@H](C(=O)N[C@H]1CCO[C@@H](c2nc(C(=O)NCCc3ccccc3)cs2)C1)N(C)C	15.8
CC[C@H](C)[C@H](NC(=O)[C@H]1CCCCN1C)C(=O)N[C@@H]1CCO[C@@H](c2nc(C(=O)NCCc3ccccc3)cs2)C1	2.23
CC[C@H](C)[C@H](NC(=O)[C@H]1CCCCN1C)C(=O)N(C)[C@H]1CCO[C@@H](c2nc(C(=O)NCCN3CCOCC3)cs2)C1	7.46
CC[C@@H](C)[C@H](NC(=O)[C@H]1CCCCN1C)C(=O)N(COC(=O)CC(C)C)[C@H](C[C@@H](OC(C)=O)c1nc(C(=O)N[C@@H](Cc2ccc(O)cc2)C[C@H](C)C(=O)O)cs1)C(C)C	72.6
CC[C@H](C)[C@H](NC(=O)[C@H]1CCCCN1C)C(=O)N(C)[C@H]1CCO[C@@H](c2nc(C(=O)NCCc3ccccc3)cs2)C1	5.87
CC[C@H](C)[C@H](N)C(=O)N[C@H]1CCO[C@@H](c2nc(C(=O)NC(C)C)cs2)C1	10.6
CC[C@H](C)[C@H](NC(=O)[C@H]1CCCCN1C)C(=O)N(C)[C@H]1CCO[C@@H](c2nc(C(=O)NCc3ccccc3)cs2)C1	10.2
CC[C@H](C)[C@H](N)C(=O)N[C@H]1CCO[C@@H](c2nc(C(=O)NCCc3ccccc3)cs2)C1	8.52
CC[C@H](C)[C@H](NC(=O)[C@H]1CCCCN1C)C(=O)N[C@H]1CCO[C@@H](c2nc(C(=O)NCCc3ccccc3)cs2)C1	1.62
CC[C@H](C)[C@H](NC(=O)[C@H]1CCCCN1C)C(=O)N[C@@H]1CCO[C@H](c2nc(C(=O)NCCc3ccccc3)cs2)C1	3.76
CC[C@H](C)[C@@H](C(=O)N[C@H]1CCO[C@@H](c2nc(C(=O)NC(C)C)cs2)C1)N(C)C	16.9
CC[C@H](C)[C@H](NC(=O)[C@H]1CCCCN1C)C(=O)N[C@H]1CCO[C@H](c2nc(C(=O)NC(C)C)cs2)C1	8.73
CC[C@]1(O)C[C@@H]2CN(CCc3c([nH]c4ccccc34)[C@@](C(=O)OC)(c3cc4c(cc3OC)N(C)[C@H]3[C@@](O)(C(=O)OC)[C@H](OC(C)=O)[C@]5(CC)C=CCN6CC[C@]43[C@@H]65)C2)C1	73.9
CC[C@H](C)[C@H](NC(=O)[C@H]1CCCCN1C)C(=O)N[C@H]1CCO[C@@H](c2nc(C(=O)NC(C)C)cs2)C1	5.35
CC[C@H](C)[C@H](NC(=O)[C@H]1CCCCN1C)C(=O)N[C@H]1CCO[C@H](c2nc(C(=O)NCCc3ccccc3)cs2)C1	5.61
CC[C@H](C)[C@H](NC(=O)[C@H]1CCCCN1C)C(=O)N(C)[C@H]1CCO[C@@H](c2nc(C(=O)NC(C)C)cs2)C1	15.5
CC[C@H](C)[C@H](NC(=O)[C@H]1CCCCN1C)C(=O)N(C)[C@H]1CCO[C@@H](c2nc(C(=O)NCCOC)cs2)C1	10.6
CC[C@H](C)[C@H](NC(=O)CN(C)C)C(=O)N[C@H]1CCO[C@@H](c2nc(C(=O)NC(C)C)cs2)C1	12.9
CC[C@H](C)[C@H](NC(=O)[C@H]1CCCCN1C)C(=O)N(C)[C@H]1CCO[C@@H](c2nc(C(=O)NCCc3ccccn3)cs2)C1	20.2
